Test results as given in patent US20240092790A1, “DIHYDROFUROPYRIDINE DERIVATIVES AS RHO- KINASE INHIBITORS” (CHIESI FARMACEUTICI S.P.A., priority 2020, published 2024).

Tests used:
Type in all cases: biochemical
[1] = biological target: ROCK2 (Homo sapiens, UniProt O75116); test: In vitro inhibitory activity assay ROCK2 (ADP-Glo); details: ATP 200 μM, Cheng-Prusoff; read-out: ROCK2 (Ki, range of activity)
Experimental: (§1) In Vitro Inhibitory Activity Assay Description ROCK1 and ROCK2
(§2) The effectiveness of compounds of the present invention to inhibit Rho kinase activity can be determined in a 10 μl assay containing 40 mM Tris pH7.5, 20 mM MgCl2 0.1 mg/mL BSA, 50 μM DTT and 2.5 μM peptide substrate (Myelin Basic Protein) using an ADP-Glo kit (Promega). Compounds were dissolved in DMSO such that the final concentration of DMSO was 1% in the assay. All reactions/incubations are performed at 25° C. Compound (2 ul) and either Rho kinase 1 or 2 (4 μl) were mixed and incubated for 30 mins. Reactions were initiated by addition of ATP (4 μl) such that the final concentration of ATP in the assay was 200 μM. After a 1 hour incubation 10 μl of ADP-Glo Reagent was added and after a further 1 hour incubation 20 ul of Kinase Detection Buffer was added and the mixture incubated for a further 45 minutes. The luminescent signal was measured on a luminometer. […] Compounds were tested in dose-response format and the inhibition of kinase activity was calculated at each concentration of compound. To determine the IC50 (concentration of compound required to inhibit 50% of the enzyme activity) data were fit to a plot of % inhibition vs Log 10 compound concentration using a sigmoidal fit with a variable slope and fixing the maximum to 100% and the minimum to 0%. To determine the Ki values the Cheng-Prusoff equation was utilized (Ki=IC50/(1+[S]/Km).

[2] = biological target: PKA (Homo sapiens, UniProt P17612); test: In vitro inhibitory activity assay for PKA (ADP-Glo), reported as selectivity ratio vs ROCK2; details: Ki value for PKA divided by Ki value of ROCK2
Experimental: In Vitro Inhibitory Activity Assay Description for PKA
The effectiveness of compounds of the present invention to inhibit PKA activity can be determined in a 10 μl assay containing 40 mM Tris pH7.5, 20 mM MgCl2 0.1 mg/ml BSA, 50 μM DTT and 260 μM peptide substrate (kemptide) using an ADP-Glo kit (Promega). Compounds were dissolved in DMSO such that the final concentration of DMSO was 1% in the assay. All reactions/incubations are performed at 25° C. Compound and PKA enzyme (6 μl) were mixed and incubated for 30 mins. Reactions were initiated by addition of ATP (4 μl) such that the final concentration of ATP in the assay was 10 μM. After a 30 minute incubation 10p of ADP-Glo Reagent was added and after a further 1 hour incubation 20 μl of Kinase Detection Buffer was added and the mixture incubated for a further 45 minutes. The luminescent signal was measured on a luminometer. […] Compounds were tested in dose-response format and the inhibition of kinase activity was calculated at each concentration of compound. To determine the IC50 (concentration of compound required to inhibit 50% of the enzyme activity) data were fit to a plot of % inhibition vs Log10 compound concentration using a sigmoidal fit with a variable slope and fixing the maximum to 100% and the minimum to 0%. To determine the Ki values the Cheng-Prusoff equation was utilized (Ki=IC50/(1+[S]/Km).
In vitro inhibitory activities for PKA were reported as selectivity ratio vs. ROCK-2.

[3] = biological target: ROCK1 (Homo sapiens, UniProt Q13464); test: In vitro inhibitory activity assay ROCK1 (ADP-Glo); details: ATP 200 μM, Cheng-Prusoff; read-out: ROCK 1 (Ki, range of activity)
Sequence of ROCK1 (Q13464 whole entry): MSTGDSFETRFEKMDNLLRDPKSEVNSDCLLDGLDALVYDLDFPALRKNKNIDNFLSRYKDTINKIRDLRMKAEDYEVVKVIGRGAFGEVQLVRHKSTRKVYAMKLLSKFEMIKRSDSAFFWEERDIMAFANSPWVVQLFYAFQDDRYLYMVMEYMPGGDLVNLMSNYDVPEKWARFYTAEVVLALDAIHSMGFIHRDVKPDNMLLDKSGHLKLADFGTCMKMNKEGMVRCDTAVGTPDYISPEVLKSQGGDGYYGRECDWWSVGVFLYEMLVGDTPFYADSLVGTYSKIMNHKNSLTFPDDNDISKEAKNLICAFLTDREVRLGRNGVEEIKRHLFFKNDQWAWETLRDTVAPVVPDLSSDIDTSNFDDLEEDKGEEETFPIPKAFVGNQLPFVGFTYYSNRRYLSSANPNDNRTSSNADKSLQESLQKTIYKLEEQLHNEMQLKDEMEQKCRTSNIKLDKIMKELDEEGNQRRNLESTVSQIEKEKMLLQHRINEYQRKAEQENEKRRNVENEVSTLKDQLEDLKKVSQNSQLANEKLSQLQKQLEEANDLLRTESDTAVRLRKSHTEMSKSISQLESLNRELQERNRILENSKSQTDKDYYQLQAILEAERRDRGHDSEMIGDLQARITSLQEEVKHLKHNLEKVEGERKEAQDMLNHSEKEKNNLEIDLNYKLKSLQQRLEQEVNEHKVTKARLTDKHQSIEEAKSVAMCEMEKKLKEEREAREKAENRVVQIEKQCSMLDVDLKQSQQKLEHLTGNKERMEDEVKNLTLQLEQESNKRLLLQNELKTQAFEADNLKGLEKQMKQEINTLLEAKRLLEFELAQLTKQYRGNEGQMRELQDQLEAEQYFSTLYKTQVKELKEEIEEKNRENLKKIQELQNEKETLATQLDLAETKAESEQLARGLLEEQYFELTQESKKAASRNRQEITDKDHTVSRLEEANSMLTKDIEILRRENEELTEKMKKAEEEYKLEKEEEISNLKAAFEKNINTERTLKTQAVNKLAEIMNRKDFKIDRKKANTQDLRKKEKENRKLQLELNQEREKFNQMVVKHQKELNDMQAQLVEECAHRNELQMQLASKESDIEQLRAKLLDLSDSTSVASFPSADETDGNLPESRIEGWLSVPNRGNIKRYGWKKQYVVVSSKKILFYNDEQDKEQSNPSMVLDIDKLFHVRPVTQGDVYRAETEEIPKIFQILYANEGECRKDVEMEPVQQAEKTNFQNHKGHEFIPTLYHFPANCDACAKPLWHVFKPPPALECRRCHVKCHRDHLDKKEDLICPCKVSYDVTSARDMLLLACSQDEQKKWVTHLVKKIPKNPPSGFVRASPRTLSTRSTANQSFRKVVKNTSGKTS
Experimental: as §1, §2

Sequence of ROCK2 (O75116 whole entry): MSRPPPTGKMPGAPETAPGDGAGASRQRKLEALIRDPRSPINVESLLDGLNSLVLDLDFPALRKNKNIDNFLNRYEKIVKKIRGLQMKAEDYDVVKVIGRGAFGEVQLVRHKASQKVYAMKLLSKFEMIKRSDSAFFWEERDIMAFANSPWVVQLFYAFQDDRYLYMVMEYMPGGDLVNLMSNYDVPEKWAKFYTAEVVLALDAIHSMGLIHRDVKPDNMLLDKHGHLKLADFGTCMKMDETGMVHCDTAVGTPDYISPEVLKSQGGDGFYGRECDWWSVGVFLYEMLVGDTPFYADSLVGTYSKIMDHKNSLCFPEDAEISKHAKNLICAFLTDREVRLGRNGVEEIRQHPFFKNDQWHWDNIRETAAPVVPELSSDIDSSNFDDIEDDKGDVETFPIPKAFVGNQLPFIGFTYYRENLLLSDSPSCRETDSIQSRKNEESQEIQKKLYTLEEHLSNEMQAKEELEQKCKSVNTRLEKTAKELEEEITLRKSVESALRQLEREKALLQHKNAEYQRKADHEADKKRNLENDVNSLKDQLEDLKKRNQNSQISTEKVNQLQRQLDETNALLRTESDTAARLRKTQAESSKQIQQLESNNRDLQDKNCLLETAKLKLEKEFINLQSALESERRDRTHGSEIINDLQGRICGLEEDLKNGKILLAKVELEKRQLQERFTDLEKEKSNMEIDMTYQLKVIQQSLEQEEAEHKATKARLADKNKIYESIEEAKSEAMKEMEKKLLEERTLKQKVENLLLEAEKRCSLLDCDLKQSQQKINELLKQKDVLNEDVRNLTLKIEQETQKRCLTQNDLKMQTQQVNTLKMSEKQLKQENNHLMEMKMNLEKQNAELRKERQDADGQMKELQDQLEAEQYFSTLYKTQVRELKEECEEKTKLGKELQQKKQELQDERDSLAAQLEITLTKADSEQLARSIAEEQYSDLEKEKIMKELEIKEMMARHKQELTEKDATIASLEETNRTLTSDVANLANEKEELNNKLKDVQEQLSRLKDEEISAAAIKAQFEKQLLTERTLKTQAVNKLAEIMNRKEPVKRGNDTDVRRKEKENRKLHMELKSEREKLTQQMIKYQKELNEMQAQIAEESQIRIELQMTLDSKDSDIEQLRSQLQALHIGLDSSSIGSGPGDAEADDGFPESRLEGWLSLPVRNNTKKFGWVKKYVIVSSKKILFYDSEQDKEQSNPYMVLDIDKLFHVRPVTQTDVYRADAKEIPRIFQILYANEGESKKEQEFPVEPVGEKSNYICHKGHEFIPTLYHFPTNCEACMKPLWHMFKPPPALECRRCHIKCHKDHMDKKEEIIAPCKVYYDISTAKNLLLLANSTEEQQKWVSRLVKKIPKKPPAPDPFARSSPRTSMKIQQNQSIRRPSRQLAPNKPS

Row | SMILES | Ki [1] [nM] | Ratio (PKA/ROCK2) [2] | Ki [3] [nM]
1 | COC(C)(C)CCNC(=O)c1cccc(CNc2ncc(-c3ccnc(N)n3)c3c2CCO3)c1 [Example 36, 3-(((7-(2-Aminopyrimidin-4-yl)-2,3-dihydrofuro[3,2-c]pyridin-4-yl)amino)methyl)-N-(3-methoxy-3-methylbutyl)benzamide] | ≤ 3 | *** (ratio≥10) | ≤ 3
2 | Nc1nccc(-c2cnc(NCc3cc(C(=O)NC4CCOCC4)ccc3F)c3c2OCC3)n1 [Example 61, 3-(((7-(2-Aminopyrimidin-4-yl)-2,3-dihydrofuro[3,2-c]pyridin-4-yl)amino)methyl)-4-fluoro-N-(tetrahydro-2H-pyran-4-yl)benzamide] | 3 to 30 | *** (ratio≥10) | > 30
3 | CCCNC(=O)c1cccc(CNc2ncc(-c3ccnc(N)n3)c3c2CCO3)c1 [Example 40, 3-(((7-(2-Aminopyrimidin-4-yl)-2,3-dihydrofuro[3,2-c]pyridin-4-yl)amino)methyl)-N-propylbenzamide] | ≤ 3 | *** (ratio≥10) | ≤ 3
4 | Nc1nccc(-c2cnc(NCc3cccc(C(=O)NC[C@H]4CCCO4)c3)c3c2OCC3)n1 [Example 42, (R)-3-(((7-(2-Aminopyrimidin-4-yl)-2,3-dihydrofuro[3,2-c]pyridin-4-yl)amino)methyl)-N-((tetrahydrofuran-2-yl)methyl)benzamide] | ≤ 3 | *** (ratio≥10) | ≤ 3
5 | CC(C)OCCCNC(=O)c1cccc(CNc2ncc(-c3ccnc(N)n3)c3c2CCO3)c1 [Example 15, 3-(((7-(2-Aminopyrimidin-4-yl)-2,3-dihydrofuro[3,2-c]pyridin-4-yl)amino)methyl)-N-(3-isopropoxypropyl)benzamide] | ≤ 3 | *** (ratio≥10) | ≤ 3
6 | CNC(=O)c1cc(F)cc(CNc2ncc(-c3ccnc(N)n3)c3c2CCO3)c1 [Example 59, 3-(((7-(2-Aminopyrimidin-4-yl)-2,3-dihydrofuro[3,2-c]pyridin-4-yl)amino)methyl)-5-fluoro-N-methylbenzamide] | ≤ 3 | *** (ratio≥10) | ≤ 3
7 | Nc1nccc(-c2cnc(NCc3cccc(C(=O)N[C@H]4C[C@H]4F)c3)c3c2OCC3)n1 [Example 47, 3-(((7-(2-Aminopyrimidin-4-yl)-2,3-dihydrofuro[3,2-c]pyridin-4-yl)amino)methyl)-N-((1S,2R)-2-fluorocyclopropyl)benzamide] | ≤ 3 | *** (ratio≥10) | ≤ 3
8 | CO[C@H]1C[C@H](NC(=O)c2cccc(CNc3ncc(-c4ccnc(N)n4)c4c3CCO4)c2)C1 [Example 41, 3-(((7-(2-Aminopyrimidin-4-yl)-2,3-dihydrofuro[3,2-c]pyridin-4-yl)amino)methyl)-N-((1R,3R)-3-methoxycyclobutyl)benzamide] | ≤ 3 | *** (ratio≥10) | ≤ 3
9 | CNC(=O)c1cccc(CNc2ncc(-c3ccnc(N)n3)c3c2CCO3)c1F [Example 54, 3-(((7-(2-Aminopyrimidin-4-yl)-2,3-dihydrofuro[3,2-c]pyridin-4-yl)amino)methyl)-2-fluoro-N-methylbenzamide] | 3 to 30 | *** (ratio≥10) | > 30
10 | CNC(=O)c1cccc(CNc2ncc(-c3ccnc(N)n3)c3c2CCO3)n1 [Example 63, 6-(((7-(2-Aminopyrimidin-4-yl)-2,3-dihydrofuro[3,2-c]pyridin-4-yl)amino)methyl)-N-methylpicolinamide] | 3 to 30 | *** (ratio≥10) | > 30
11 | CC(C)(F)CNC(=O)c1cccc(CNc2ncc(-c3ccnc(N)n3)c3c2CCO3)c1 [Example 31, 3-(((7-(2-Aminopyrimidin-4-yl)-2,3-dihydrofuro[3,2-c]pyridin-4-yl)amino)methyl)-N-(2-fluoro-2-methylpropyl)benzamide] | ≤ 3 | *** (ratio≥10) | ≤ 3
12 | Nc1nccc(-c2cnc(NCc3cccc(C(=O)NC4CC(F)(F)C4)c3)c3c2OCC3)n1 [Example 10, 3-(((7-(2-Aminopyrimidin-4-yl)-2,3-dihydrofuro[3,2-c]pyridin-4-yl)amino)methyl)-N-(3,3-difluorocyclobutyl)benzamide] | ≤ 3 | ** (5≤ratio<10) | ≤ 3
13 | Nc1nccc(-c2cnc(NCc3cccc(C(=O)N[C@H]4C[C@H](F)C4)c3)c3c2OCC3)n1 [Example 49, 3-(((7-(2-Aminopyrimidin-4-yl)-2,3-dihydrofuro[3,2-c]pyridin-4-yl)amino)methyl)-N-((1r,3r)-3-fluorocyclobutyl)benzamide] | ≤ 3 | *** (ratio≥10) | ≤ 3
14 | Nc1nccc(-c2cnc(NCc3cccc(C(=O)NCCCOC(F)F)c3)c3c2OCC3)n1 [Example 14, 3-(((7-(2-Aminopyrimidin-4-yl)-2,3-dihydrofuro[3,2-c]pyridin-4-yl)amino)methyl)-N-(3-(difluoromethoxy)propyl)benzamide] | ≤ 3 | *** (ratio≥10) | ≤ 3
15 | Nc1nccc(-c2cnc(NCc3cccc(C(=O)N[C@H]4C[C@@H](F)C4)c3)c3c2OCC3)n1 [Example 48, 3-(((7-(2-Aminopyrimidin-4-yl)-2,3-dihydrofuro[3,2-c]pyridin-4-yl)amino)methyl)-N-((1S,3S)-3-fluorocyclobutyl)benzamide] | ≤ 3 | ** (5≤ratio<10) | ≤ 3
16 | Nc1nccc(-c2cnc(NCc3cccc(C(=O)NCC4CC4)c3)c3c2OCC3)n1 [Example 25, 3-(((7-(2-Aminopyrimidin-4-yl)-2,3-dihydrofuro[3,2-c]pyridin-4-yl)amino)methyl)-N-(cyclopropylmethyl)benzamide] | ≤ 3 | *** (ratio≥10) | ≤ 3
17 | CC1(CNC(=O)c2cccc(CNc3ncc(-c4ccnc(N)n4)c4c3CCO4)c2)CC1 [Example 30, 3-(((7-(2-Aminopyrimidin-4-yl)-2,3-dihydrofuro[3,2-c]pyridin-4-yl)amino)methyl)-N-((1-methylcyclopropyl)methyl)benzamide] | ≤ 3 | ** (5≤ratio<10) | ≤ 3
18 | Nc1nccc(-c2cnc(NCc3cccc(C(=O)N[C@H]4C[C@@H](OC(F)F)C4)c3)c3c2OCC3)n1 [Example 26, 3-(((7-(2-aminopyrimidin-4-yl)-2,3-dihydrofuro[3,2-c]pyridin-4-yl)amino)methyl)-N-((1s,3s)-3-(difluoromethoxy)cyclobutyl)benzamide] | ≤ 3 | *** (ratio≥10) | ≤ 3
19 | COCCCC(=O)Nc1cccc(CNc2ncc(-c3ccnc(N)n3)c3c2CCO3)c1 [Example 64, N-(3-(((7-(2-aminopyrimidin-4-yl)-2,3-dihydrofuro[3,2-c]pyridin-4-yl)amino)methyl)phenyl)-4-methoxybutanamide] | ≤ 3 | *** (ratio≥10) | 3 to 30
20 | Nc1nccc(-c2cnc(NCc3cccc(C(=O)N[C@H]4[C@@H]5COC[C@@H]54)c3)c3c2OCC3)n1 [Example 23, 3-(((7-(2-Aminopyrimidin-4-yl)-2,3-dihydrofuro[3,2-c]pyridin-4-yl)amino)methyl)-N-((1R,5S,6r)-3-oxabicyclo[3.1.0]hexan-6-yl)benzamide] | ≤ 3 | *** (ratio≥10) | ≤ 3
